Assay results from patent publication US20210223230A1, “Neamine Compositions and Methods of Use Thereof” (President and Fellows of Harvard College, priority 2008, published 2021).

Experiments:
47S rRNA = experiment: rRNA transcription in LNCaP cells by Northern blotting; type: cell-based, human; conditions: ANG 0.1 μg/ml, 26-2F 60 μg/ml, 2 h
Description: (§1) (a) ANG stimulates LNCaP cell proliferation in the absence of androgens. Cells were culture in phenol red-free and charcoal/dextran-stripped (steroid-free) FBS for 2 day and stimulated with DHT (10 nM), ANG (0.1 μg/ml), or a mixture of the two for the time indicated. (b) Dose dependence. ANG was added to the cells and cultured for 4 days. (c) Anti-ANG mAb 26-2F inhibits DHT-induced cell proliferation. LNCaP cells were stimulated with 10 nM DHT in the presence of 26-2F or a control non-immune IgG for 3 days. (d) ANG over-expression promotes LNCaP proliferation in vitro. The vector control (pCI-Neo) and ANG transfectants (pCI-ANG) were cultured in phenol red-free and steroid-free medium for the time indicated. (e) Xenograft growth in castrated SCID mice. A mixture of 70 μl cell suspension (1×10^6 cells) and 30 μl Matrigel was injected s.c. per mouse (8 per group). The mice were castrated or sham-operated at the same time. Tumors were inspected and measured twice a week and the animals were sacrificed after 8 weeks of observation. (f) Endogenous ANG of LNCaP cells is essential for androgen-induced rRNA transcription. LNCaP cells were cultured in phenol red-free and steroid-free medium and incubated with DHT (10 nM), ANG (0.1 μg/ml), anti-ANG mAb 26-2F (60 μg/ml) or a mixture of DHT and 26-2F for 2 h. […]

LNCaP cells = experiment: LNCaP cell proliferation in phenol red-free and steroid-free medium; type: cell-based, human; conditions: ANG 0.1 μg/ml, DHT 10 nM
Description: as §1

[1] = system: PC-3, PC-3M, and DU-145 cells; experiment: Proliferation of androgen-independent prostate cancer cells; type: cell-based, human
PIN = experiment: Injection of human ANG protein into the ventral prostate of MPAKT mice (cancer invasion); type: in vivo; conditions: 50 μg per mouse, 9 weeks-old MPAKT mice, sacrificed 2 weeks later
Description: Human ANG protein, 50 μg per mouse, was injected into the surgically exposed ventral prostate of 9 weeks-old MPAKT mice. The mice were sacrificed 2 weeks later and the prostates were processed for H&E staining. Cells invading outside of the basement membrane are indicated by arrows.

AR = molecular target: T1, AR (Homo sapiens, UniProt P10275, T878A); experiment: Nuclear translocation of AR in LNCaP cells by immunofluorescence; type: cell-based; conditions: ANG 0.1 μg/ml, 2 h
T1 construct: in untreated LNCaP cells, AR was diffusely distributed throughout the cytoplasm; endogenous in cells; host or cells: LNCaP
T1 sequence (P10275 1-920 T878A): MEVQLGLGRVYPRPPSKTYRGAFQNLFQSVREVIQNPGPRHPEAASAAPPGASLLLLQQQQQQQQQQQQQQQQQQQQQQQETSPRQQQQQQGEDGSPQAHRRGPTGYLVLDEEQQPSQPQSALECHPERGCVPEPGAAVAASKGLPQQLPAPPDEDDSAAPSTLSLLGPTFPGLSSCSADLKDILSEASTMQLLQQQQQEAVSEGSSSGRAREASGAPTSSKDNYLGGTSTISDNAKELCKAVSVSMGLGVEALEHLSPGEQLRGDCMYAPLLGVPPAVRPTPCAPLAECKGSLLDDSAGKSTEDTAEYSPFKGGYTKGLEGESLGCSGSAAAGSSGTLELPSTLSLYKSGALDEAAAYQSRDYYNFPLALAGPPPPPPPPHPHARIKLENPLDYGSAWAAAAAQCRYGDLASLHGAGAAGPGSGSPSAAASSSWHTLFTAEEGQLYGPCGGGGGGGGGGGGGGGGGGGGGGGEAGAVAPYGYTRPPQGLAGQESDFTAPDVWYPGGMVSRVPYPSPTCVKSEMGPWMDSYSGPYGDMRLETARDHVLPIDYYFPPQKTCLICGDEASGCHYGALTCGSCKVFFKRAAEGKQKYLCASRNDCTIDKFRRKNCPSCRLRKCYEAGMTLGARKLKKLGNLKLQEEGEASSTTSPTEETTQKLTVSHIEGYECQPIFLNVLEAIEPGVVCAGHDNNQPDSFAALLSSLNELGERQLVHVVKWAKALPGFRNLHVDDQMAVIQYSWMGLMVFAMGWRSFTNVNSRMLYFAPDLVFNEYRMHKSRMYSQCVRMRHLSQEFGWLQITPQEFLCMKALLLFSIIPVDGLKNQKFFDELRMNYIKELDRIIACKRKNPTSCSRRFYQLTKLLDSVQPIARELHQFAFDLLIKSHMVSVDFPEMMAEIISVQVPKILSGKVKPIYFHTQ
Description: FIG. 19 is a four panel figure that depicts a series of photographs showing immunofluorescently labeled LNCaP cells, showing the effect of ANG on nuclear translocation of AR (panels a-d). LNCaP cells were cultured in charcoal/dextran-stripped FBS and phenol red-free medium for 2 days, and incubated with ANG (0.1 μg/ml), DHT (10 nM) or DHT (10 nM)+anti-ANG mAb 26-2F (30 μg/ml) for 2 h. The cells were fixed and stained for AR by immunofluorescence.

nuclear translocation of AR in the absence of androgen (AR): stimulated
Substance: ANG: angiogenin, a 14 kDa angiogenic ribonuclease
rRNA transcription in LNCaP cells (47S rRNA): stimulated
LNCaP cell proliferation in the absence of androgens (LNCaP cells): stimulates
effect of exogenously added ANG on cell proliferation [1]: no effect
animals with micro invasions (PIN): 2 of the 4
